Test results reported in publication PMC4503722, “Novel Phenotypic Outcomes Identified for a Public Collection of Approved Drugs from a Publicly Accessible Panel of Assays” (PLoS ONE, 2015).

Key:
hFLT3 = molecular target: T1, hFLT3 (Homo sapiens, UniProt P36888); assay: Cerep LANCE kinase assay hFLT3 (S1 assay 35); type: biochemical; settings: for hFLT3 LANCE IC50/EC50: assay number 35
T1 construct: purchased Cerep (LANCE kinase assay platform, contract assay)

[1] = system: HCT116 cells treated with a GSK3β inhibitor; assay: cells; type: cell-based; settings: for GSK3b inh pretreated_Viability ATP HCT116 IC50/EC50: assay number 26, GSK3b inhibitor pretreated
[2] = system: alkaline phosphatase (ALP) activity in C2C12 cells; type: cell-based; settings: for WntCondMedia_Alk Phos C2C12 IC50/EC50: assay number 6, concentration response
HT-29 = assay: cells; type: cell-based; settings: for Basal_Viability ATP HT-29 IC50/EC50: assay number 28
SNU-C1 = assay: cells; type: cell-based; settings: for Basal_Viability ATP SNU-C1 IC50/EC50: assay number 30
hGSK3b = molecular target: T2, hGSK3b (Homo sapiens, UniProt P49841); assay: Cerep LANCE kinase assay hGSK3b (S1 assay 34); type: biochemical; settings: for hGSK3b LANCE IC50/EC50: assay number 34
T2 construct: purchased Cerep (LANCE kinase assay platform, contract assay)
T2 sequence (P49841 whole entry): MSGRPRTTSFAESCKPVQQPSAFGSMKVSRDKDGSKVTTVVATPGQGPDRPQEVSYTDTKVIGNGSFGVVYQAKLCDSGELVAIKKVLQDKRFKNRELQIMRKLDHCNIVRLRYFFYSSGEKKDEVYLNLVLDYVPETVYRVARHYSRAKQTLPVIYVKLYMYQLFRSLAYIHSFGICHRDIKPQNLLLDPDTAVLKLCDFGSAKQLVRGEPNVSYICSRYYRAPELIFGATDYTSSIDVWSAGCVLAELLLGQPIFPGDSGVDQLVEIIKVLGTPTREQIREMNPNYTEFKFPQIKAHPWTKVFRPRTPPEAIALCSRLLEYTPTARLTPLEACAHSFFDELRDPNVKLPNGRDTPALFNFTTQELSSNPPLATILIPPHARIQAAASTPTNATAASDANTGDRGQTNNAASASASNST

hJAK2 = molecular target: T3, hJAK2 (Homo sapiens, UniProt O60674); assay: Cerep LANCE kinase assay hJAK2 (S1 assay 33); type: biochemical; settings: for hJAK2 LANCE IC50/EC50: assay number 33
T3 construct: purchased Cerep (LANCE kinase assay platform, contract assay)
T3 sequence (O60674 whole entry): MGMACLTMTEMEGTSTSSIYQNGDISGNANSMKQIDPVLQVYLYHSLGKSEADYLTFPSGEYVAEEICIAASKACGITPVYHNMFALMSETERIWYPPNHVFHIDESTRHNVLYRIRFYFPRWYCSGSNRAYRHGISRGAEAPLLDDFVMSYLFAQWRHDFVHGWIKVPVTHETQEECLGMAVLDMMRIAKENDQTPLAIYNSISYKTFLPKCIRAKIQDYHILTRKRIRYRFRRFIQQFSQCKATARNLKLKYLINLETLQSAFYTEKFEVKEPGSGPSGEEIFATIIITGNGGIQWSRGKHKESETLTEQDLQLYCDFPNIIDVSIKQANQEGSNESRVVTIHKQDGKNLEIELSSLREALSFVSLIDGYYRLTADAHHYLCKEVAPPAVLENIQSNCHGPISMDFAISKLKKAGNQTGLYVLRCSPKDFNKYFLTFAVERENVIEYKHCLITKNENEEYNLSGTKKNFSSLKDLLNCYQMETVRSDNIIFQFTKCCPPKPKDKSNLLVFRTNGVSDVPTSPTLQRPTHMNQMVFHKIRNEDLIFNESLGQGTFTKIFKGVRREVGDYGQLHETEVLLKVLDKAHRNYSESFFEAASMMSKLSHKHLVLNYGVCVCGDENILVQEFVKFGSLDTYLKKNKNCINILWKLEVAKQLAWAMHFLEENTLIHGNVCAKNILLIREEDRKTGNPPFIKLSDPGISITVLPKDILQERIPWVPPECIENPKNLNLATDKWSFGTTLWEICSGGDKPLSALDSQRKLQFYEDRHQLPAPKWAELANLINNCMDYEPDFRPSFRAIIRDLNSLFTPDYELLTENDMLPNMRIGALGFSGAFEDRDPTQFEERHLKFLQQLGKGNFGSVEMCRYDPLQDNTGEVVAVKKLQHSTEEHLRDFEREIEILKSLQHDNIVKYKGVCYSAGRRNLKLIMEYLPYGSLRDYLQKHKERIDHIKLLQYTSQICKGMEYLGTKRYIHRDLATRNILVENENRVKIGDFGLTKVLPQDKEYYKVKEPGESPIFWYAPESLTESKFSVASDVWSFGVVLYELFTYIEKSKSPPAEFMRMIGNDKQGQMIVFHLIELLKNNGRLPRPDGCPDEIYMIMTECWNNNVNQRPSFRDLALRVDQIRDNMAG

[3] = system: nuclear β-catenin in C2C12 cells; assay: cells; type: cell-based; settings: for WntCondMedia_bCatenin C2C12 IC50/EC50: assay number 5, concentration response
RKO = assay: cells; type: cell-based; settings: for Basal_Viability ATP RKO IC50/EC50: assay number 29
hKDR = molecular target: T4, hKDR (Homo sapiens, UniProt P35968); assay: Cerep LANCE kinase assay hKDR (S1 assay 32); type: biochemical; settings: for hKDR LANCE IC50/EC50: assay number 32
T4 construct: purchased Cerep (LANCE kinase assay platform, contract assay)
T4 sequence (P35968 20-1356): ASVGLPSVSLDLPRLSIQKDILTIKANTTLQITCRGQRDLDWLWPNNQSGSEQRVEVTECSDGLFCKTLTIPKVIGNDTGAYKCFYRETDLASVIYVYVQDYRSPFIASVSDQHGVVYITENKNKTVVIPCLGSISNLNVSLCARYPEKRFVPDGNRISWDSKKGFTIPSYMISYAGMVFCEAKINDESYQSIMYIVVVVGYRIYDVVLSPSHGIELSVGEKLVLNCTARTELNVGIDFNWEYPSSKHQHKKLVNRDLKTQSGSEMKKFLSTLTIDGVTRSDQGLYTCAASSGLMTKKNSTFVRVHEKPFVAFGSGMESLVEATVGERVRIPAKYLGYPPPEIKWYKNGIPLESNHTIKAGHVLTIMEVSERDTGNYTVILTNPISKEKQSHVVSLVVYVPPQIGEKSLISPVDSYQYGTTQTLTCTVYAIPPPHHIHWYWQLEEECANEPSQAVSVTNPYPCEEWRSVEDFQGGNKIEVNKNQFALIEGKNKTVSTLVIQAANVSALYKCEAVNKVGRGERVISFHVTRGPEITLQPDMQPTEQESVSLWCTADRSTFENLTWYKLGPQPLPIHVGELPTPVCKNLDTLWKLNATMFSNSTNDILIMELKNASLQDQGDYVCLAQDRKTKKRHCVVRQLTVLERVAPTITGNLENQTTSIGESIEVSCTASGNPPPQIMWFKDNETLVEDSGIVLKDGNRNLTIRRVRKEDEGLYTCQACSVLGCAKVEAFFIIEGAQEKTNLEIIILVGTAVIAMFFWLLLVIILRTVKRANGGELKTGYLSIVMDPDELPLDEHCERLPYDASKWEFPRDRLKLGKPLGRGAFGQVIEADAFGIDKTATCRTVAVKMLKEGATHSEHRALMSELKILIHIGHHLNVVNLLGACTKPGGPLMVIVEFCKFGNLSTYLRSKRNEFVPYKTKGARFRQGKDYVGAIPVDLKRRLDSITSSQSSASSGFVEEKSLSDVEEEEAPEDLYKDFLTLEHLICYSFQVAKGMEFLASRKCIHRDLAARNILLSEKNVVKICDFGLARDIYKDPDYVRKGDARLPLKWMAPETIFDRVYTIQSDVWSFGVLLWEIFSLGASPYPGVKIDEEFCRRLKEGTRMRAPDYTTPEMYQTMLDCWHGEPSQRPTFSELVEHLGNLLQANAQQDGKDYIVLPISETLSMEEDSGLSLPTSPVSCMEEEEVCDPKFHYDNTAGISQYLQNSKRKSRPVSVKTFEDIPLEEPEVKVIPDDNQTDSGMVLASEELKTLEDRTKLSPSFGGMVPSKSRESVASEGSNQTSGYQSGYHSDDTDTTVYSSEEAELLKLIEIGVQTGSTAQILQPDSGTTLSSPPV

HCT116 = assay: cells; type: cell-based; settings: for Basal_Viability ATP HCT116 IC50/EC50: assay number 25, basal
hp70S6K1 (RPS6KB1) = molecular target: T5, hp70S6K1 (RPS6KB1) (Homo sapiens, UniProt P23443); assay: Cerep LANCE kinase assay hp70S6K1 (S1 assay 31); type: biochemical; settings: for hp70S6K1 LANCE IC50/EC50: assay number 31
T5 construct: purchased Cerep (LANCE kinase assay platform, contract assay)
T5 sequence (P23443 whole entry): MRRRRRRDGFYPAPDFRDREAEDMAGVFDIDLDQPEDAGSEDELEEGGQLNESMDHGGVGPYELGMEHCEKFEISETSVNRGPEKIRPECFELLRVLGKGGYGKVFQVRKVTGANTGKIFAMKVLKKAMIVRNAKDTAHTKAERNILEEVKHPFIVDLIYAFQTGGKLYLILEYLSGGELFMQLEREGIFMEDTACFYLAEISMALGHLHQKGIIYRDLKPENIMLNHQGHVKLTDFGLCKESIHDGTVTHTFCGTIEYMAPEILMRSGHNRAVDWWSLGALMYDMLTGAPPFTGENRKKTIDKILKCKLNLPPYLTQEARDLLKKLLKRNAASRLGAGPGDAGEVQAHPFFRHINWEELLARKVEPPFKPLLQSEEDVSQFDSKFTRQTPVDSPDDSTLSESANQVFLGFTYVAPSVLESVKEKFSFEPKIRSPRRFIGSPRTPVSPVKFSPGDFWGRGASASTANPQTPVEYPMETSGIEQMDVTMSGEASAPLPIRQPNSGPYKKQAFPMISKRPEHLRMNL

DLD-1 = assay: cells; type: cell-based; settings: for Basal_Viability ATP DLD-1 IC50/EC50: assay number 23
SW480 = assay: cells; type: cell-based; settings: for Basal_Viability ATP SW480 IC50/EC50: assay number 24, basal
Colo320 = assay: cells; type: cell-based; settings: for Basal_Viability ATP Colo 320 IC50/EC50: assay number 27, basal
HeLa cells = assay: cells; type: cell-based; settings: for Hela CellCycMod PI 2N IC50/EC50: assay number 14; for Hela CellCycMod PI S Phase IC50/EC50: assay number 15; for Hela CellCycMod PI 4N IC50/EC50: assay number 16; for Hela CellCycMod PI MI IC50/EC50: assay number 17; for Hela CellCycMod PI Cell Number IC50/EC50: assay number 18
[4] = system: endothelial tube formation in co-cultures of ECFCs and ADSCs treated with VEGF; assay: cells; type: cell-based, human
[5] = system: ECFC/ADSC co-culture cell nuclei number

T1 sequence (P36888 27-993): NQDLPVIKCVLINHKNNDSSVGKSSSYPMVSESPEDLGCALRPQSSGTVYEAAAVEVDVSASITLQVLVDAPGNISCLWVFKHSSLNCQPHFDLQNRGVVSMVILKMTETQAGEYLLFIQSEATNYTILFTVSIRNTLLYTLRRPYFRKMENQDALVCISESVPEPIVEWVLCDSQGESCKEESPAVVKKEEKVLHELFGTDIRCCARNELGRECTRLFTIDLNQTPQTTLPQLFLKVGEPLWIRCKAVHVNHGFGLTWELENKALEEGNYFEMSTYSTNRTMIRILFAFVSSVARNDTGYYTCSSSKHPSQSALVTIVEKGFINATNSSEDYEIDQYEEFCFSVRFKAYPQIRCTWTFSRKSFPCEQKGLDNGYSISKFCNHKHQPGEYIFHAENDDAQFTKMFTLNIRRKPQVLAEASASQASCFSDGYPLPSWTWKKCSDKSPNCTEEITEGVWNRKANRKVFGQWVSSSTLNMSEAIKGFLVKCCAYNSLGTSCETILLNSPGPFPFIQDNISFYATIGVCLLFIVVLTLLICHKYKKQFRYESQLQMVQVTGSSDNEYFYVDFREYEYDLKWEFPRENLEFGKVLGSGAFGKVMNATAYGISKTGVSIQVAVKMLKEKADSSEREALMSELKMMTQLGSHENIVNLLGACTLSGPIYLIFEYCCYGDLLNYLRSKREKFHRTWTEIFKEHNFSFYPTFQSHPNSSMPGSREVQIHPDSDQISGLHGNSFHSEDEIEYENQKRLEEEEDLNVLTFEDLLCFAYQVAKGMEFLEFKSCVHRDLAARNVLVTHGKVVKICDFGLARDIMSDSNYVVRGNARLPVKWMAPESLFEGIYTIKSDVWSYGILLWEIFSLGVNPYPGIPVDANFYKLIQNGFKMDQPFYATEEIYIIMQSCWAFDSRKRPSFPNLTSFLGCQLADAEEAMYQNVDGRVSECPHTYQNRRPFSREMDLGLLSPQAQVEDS

Cc1nc(N)nc(N)c1-c1ccc(Cl)c(Cl)c1 [NCGC00253626-01]
hFLT3 LANCE IC50/EC50 (hFLT3): > 20 µM
GSK3b inh pretreated_Viability ATP HCT116 IC50/EC50 [1]: 0.05888 µM
WntCondMedia_Alk Phos C2C12 IC50/EC50 [2]: 0.0299 µM
Basal_Viability ATP HT-29 IC50/EC50 (HT-29; basal): 0.9316 µM
Basal_Viability ATP SNU-C1 IC50/EC50 (SNU-C1; basal): 2.165 µM
hGSK3b LANCE IC50/EC50 (hGSK3b): > 20 µM
hJAK2 LANCE IC50/EC50 (hJAK2): > 20 µM
WntCondMedia_bCatenin C2C12 IC50/EC50 [3]: 0.0504 µM
Basal_Viability ATP RKO IC50/EC50 (RKO; basal): 0.1171 µM
hKDR LANCE IC50/EC50 (hKDR): > 20 µM
Basal_Viability ATP HCT116 IC50/EC50 (HCT116): 0.4134 µM
hp70S6K1 LANCE IC50/EC50 (hp70S6K1 (RPS6KB1)): > 20 µM
Basal_Viability ATP DLD-1 IC50/EC50 (DLD-1; basal): 0.6337 µM
Basal_Viability ATP SW480 IC50/EC50 (SW480): 0.512 µM
Basal_Viability ATP Colo 320 IC50/EC50 (Colo320): 2.03 µM
Hela CellCycMod PI 2N IC50/EC50 (HeLa cells): > 10 µM
Hela CellCycMod PI S Phase IC50/EC50 (HeLa cells): > 10 µM
Hela CellCycMod PI 4N IC50/EC50 (HeLa cells): > 10 µM
Hela CellCycMod PI MI IC50/EC50 (HeLa cells): > 10 µM
Hela CellCycMod PI Cell Number IC50/EC50 (HeLa cells): 1.0068 µM

CC(C)C[C@H](NC(=O)[C@H](CCc1ccccc1)NC(=O)CN1CCOCC1)C(=O)N[C@@H](Cc1ccccc1)C(=O)N[C@@H](CC(C)C)C(=O)[C@@]1(C)CO1 [NCGC00249613-02]
hFLT3 LANCE IC50/EC50 (hFLT3): > 20 µM
GSK3b inh pretreated_Viability ATP HCT116 IC50/EC50 [1]: 0.00173 µM
VEGF_ADSC\ECFC Angio CD31 TubeArea IC50/EC50 [4]: 0.0204 µM
WntCondMedia_Alk Phos C2C12 IC50/EC50 [2]: 0.0152 µM
Basal_Viability ATP HT-29 IC50/EC50 (HT-29): 0.00318 µM
Basal_Viability ATP SNU-C1 IC50/EC50 (SNU-C1): 0.00147 µM
hGSK3b LANCE IC50/EC50 (hGSK3b): > 20 µM
hJAK2 LANCE IC50/EC50 (hJAK2): > 20 µM
WntCondMedia_bCatenin C2C12 IC50/EC50 [3]: 0.0292 µM
Basal_Viability ATP RKO IC50/EC50 (RKO): 0.00394 µM
hKDR LANCE IC50/EC50 (hKDR): > 20 µM
Basal_Viability ATP HCT116 IC50/EC50 (HCT116): 0.00558 µM
hp70S6K1 LANCE IC50/EC50 (hp70S6K1 (RPS6KB1)): > 20 µM
VEGF_ADSC\ECFC Angio Hoechst NucArea IC50/EC50 [5]: 0.2852 µM
Basal_Viability ATP DLD-1 IC50/EC50 (DLD-1): 0.00696 µM
Hela CellCycMod PI 2N IC50/EC50 (HeLa cells): > 10 µM
Hela CellCycMod PI 4N IC50/EC50 (HeLa cells): > 10 µM
Hela CellCycMod PI MI IC50/EC50 (HeLa cells): > 10 µM
Hela CellCycMod PI Cell Number IC50/EC50 (HeLa cells): 0.0099 µM

O=[N+]([O-])c1ccc(O)c2ncccc12 [NCGC00160664-03]
IC50/EC50, hFLT3 LANCE (assay number 35) (hFLT3): > 20 µM
IC50/EC50, GSK3b inh pretreated_Viability ATP HCT116 (assay number 26) [1]: 0.3751 µM
IC50/EC50, WntCondMedia_Alk Phos C2C12 (assay number 6) [2]: 6.3615 µM
IC50/EC50, Basal_Viability ATP HT-29 (assay number 28) (HT-29): > 20 µM
IC50/EC50, Basal_Viability ATP SNU-C1 (assay number 30) (SNU-C1): > 20 µM
IC50/EC50, hGSK3b LANCE (assay number 34) (hGSK3b): > 20 µM
IC50/EC50, hJAK2 LANCE (assay number 33) (hJAK2): > 20 µM
IC50/EC50, WntCondMedia_bCatenin C2C12 (assay number 5) [3]: > 20 µM
IC50/EC50, Basal_Viability ATP RKO (assay number 29) (RKO): 0.7101 µM
IC50/EC50, hKDR LANCE (assay number 32) (hKDR): > 20 µM
IC50/EC50, Basal_Viability ATP HCT116 (assay number 25) (HCT116): 0.9206 µM
IC50/EC50, hp70S6K1 LANCE (assay number 31) (hp70S6K1 (RPS6KB1)): > 20 µM
IC50/EC50, Basal_Viability ATP DLD-1 (assay number 23) (DLD-1): 1.375 µM
IC50/EC50, Basal_Viability ATP SW480 (assay number 24) (SW480): 0.6046 µM
IC50/EC50, Basal_Viability ATP Colo 320 (assay number 27) (Colo320): 0.6837 µM
IC50/EC50, Hela CellCycMod PI 2N (assay number 14) (HeLa cells): 1.7028 µM
IC50/EC50, Hela CellCycMod PI 4N (assay number 16) (HeLa cells): > 10 µM
IC50/EC50, Hela CellCycMod PI Cell Number (assay number 18) (HeLa cells): 0.2952 µM
IC50/EC50, Hela CellCycMod PI MI (assay number 17) (HeLa cells): > 10 µM
IC50/EC50, Hela CellCycMod PI S Phase (assay number 15) (HeLa cells): > 10 µM

COc1cccc2c1C(=O)c1c(O)c3c(c(O)c1C2=O)C[C@@](O)(C(C)=O)C[C@@H]3O[C@H]1C[C@H](N)[C@H](O)[C@H](C)O1 [NCGC00024246-15]
hFLT3 LANCE IC50/EC50 (hFLT3): > 20 µM
GSK3b inh pretreated_Viability ATP HCT116 IC50/EC50 [1]: 0.05538 µM
WntCondMedia_Alk Phos C2C12 IC50/EC50 [2]: 0.0061 µM
Basal_Viability ATP HT-29 IC50/EC50 (HT-29; basal): 0.6485 µM
Basal_Viability ATP SNU-C1 IC50/EC50 (SNU-C1; basal): 0.3376 µM
hGSK3b LANCE IC50/EC50 (hGSK3b): > 20 µM
hJAK2 LANCE IC50/EC50 (hJAK2): > 20 µM
WntCondMedia_bCatenin C2C12 IC50/EC50 [3]: 0.3691 µM
Basal_Viability ATP RKO IC50/EC50 (RKO; basal): 0.1182 µM
hKDR LANCE IC50/EC50 (hKDR): > 20 µM
Basal_Viability ATP HCT116 IC50/EC50 (HCT116): 0.05086 µM
hp70S6K1 LANCE IC50/EC50 (hp70S6K1 (RPS6KB1)): > 20 µM
Basal_Viability ATP DLD-1 IC50/EC50 (DLD-1; basal): 0.188 µM
Basal_Viability ATP SW480 IC50/EC50 (SW480): 1.466 µM
Basal_Viability ATP Colo 320 IC50/EC50 (Colo320): 9.2476 µM
Hela CellCycMod PI 2N IC50/EC50 (HeLa cells): 0.01016 µM
Hela CellCycMod PI S Phase IC50/EC50 (HeLa cells): 9.6046 µM
Hela CellCycMod PI 4N IC50/EC50 (HeLa cells): 0.04645 µM
Hela CellCycMod PI MI IC50/EC50 (HeLa cells): 0.3738 µM
Hela CellCycMod PI Cell Number IC50/EC50 (HeLa cells): 0.00805 µM
